Test results from a melting point compilation (Tetko et al.; mined from patent text by program, amines drawn as free bases though some values may be those of a salt).

Going from `CS(=O)(=O)c1ccc(-c2sc(NCc3ccccc3)nc2-c2ccc(F)cc2)cc1` to `c1ccc(-c2ccc(-c3cc4ccccc4[nH]3)cc2)cc1`, the melting point rises from 112 °C to 301 °C.

First: C=Cc1cn(-c2c(Cl)cc(C(F)(F)F)cc2Cl)nc1C#N
Second: CNC(=O)c1cc(C#N)cc(C)c1NC(=O)c1cc(C(F)(F)F)nn1-c1ncccc1Cl
The melting point of the first is lower: 75 to 76 °C for the first, 214 to 216 °C for the second.

Compared with `COc1cccc(Cc2nc3n(-c4c(Cl)cc(Cl)cc4Cl)[nH]c(SC)c-3c(=O)n2)c1`, `COc1ccc(-c2cc(=O)n(Cc3ccc(Cl)cc3Cl)nc2-c2ccc(OC)c(OC)c2)cc1` is lower in melting point: 245 to 248 °C for the first, 119 to 120 °C for the second.

First: CC1(C)CN(CC2Cc3nccnc3C2)c2nc(-c3ccncn3)cc(=O)n2C1
Second: COc1cccc(CNc2nccc(-c3cc(N4CCN(CCCN(C)C)CC4)c4cc(OC)ccc4c3)n2)c1
The melting point of the first is higher: 193 to 195 °C for the first, 70 to 75 °C for the second.

First: NS(=O)(=O)c1cnc(-c2cn(-c3cc(-c4ccc(Cl)cc4)cc(C(F)(F)F)n3)cn2)s1
Second: NS(=O)(=O)c1cccc(C(=O)Nc2ccc(-n3nc(C(F)(F)F)cc3C(F)(F)F)cc2)c1
The melting point of the first is higher: 263 °C for the first, 177 to 178 °C for the second.

`COC(=O)c1[nH]c(C)c(C)c1O` and `CCOC(=O)c1[nH]c2cc(F)c(Cl)cc2c1Sc1cc(C)cc(C)c1` cannot be ordered by melting point: 170 to 172 °C for the first, 170 to 173 °C for the second.

First: CCCn1c(=O)c(C(=O)OCC)c(O)c2cnc(-c3ccccc3)nc21
Second: CCOC(=O)c1ccc(-c2nc3ccc(C)cn3c2CNC(=O)CC(C)C)cc1
The melting point of the first is lower: 164 to 167 °C for the first, 230 to 231 °C for the second.

Compared with `COC(=O)C(C)(C(=O)O)N1C(=O)CCC(N2C(=O)c3ccccc3C2=O)C1=O` (stereo not given), `C[C@@H](OS(C)(=O)=O)C(=O)N1C(=O)N(C)C[C@H]1C(=O)OCc1ccccc1` is lower in melting point: 143 to 146 °C for the first, 98 to 102 °C for the second.

First: CC(C)C(NC(=O)C(NC(=O)C1CCCN1C(=O)OC(C)(C)C)C(Cc1ccccc1)C(=O)O)C(=O)NC(Cc1ccc(O)cc1)C(=O)OCc1ccccc1 (stereo not given)
Second: Cc1cc(CNC(=O)c2cc(-c3ccc(C(C)(C)C)cc3)n(Cc3ccccc3)n2)ccc1OC(C)(C)C(=O)O
The melting point of the first is lower: 75 to 78 °C for the first, 88 °C for the second.

First: Fc1ccc2c(C3CCN(CCc4ccccc4)CC3)n[nH]c2c1
Second: O=c1[nH]c2ccc(S(=O)CCN3CCC(Cc4cccc(F)c4F)CC3)cc2o1 (stereo not given)
The melting point of the first is lower: 163 to 165 °C for the first, 188 to 190 °C for the second.

First: COc1ccc2c(c1)C(=O)C(Cc1cccc(N)c1)C(C)O2 (stereo not given)
Second: COc1ccc2c(c1)C(CCN1CC=C(c3ccccc3)CC1)C(C)N2C(C)=O (stereo not given)
The melting point of the first is lower: 110 to 112 °C for the first, 113 to 115 °C for the second.

First: CCOC(=O)C1=NNC2C(=O)N(Cc3ccccc3)C(=O)C12 (stereo not given)
Second: O=C(O)c1cc2cccc(OCc3ccccc3)c2[nH]1
The melting point of the first is lower: 100 to 101 °C for the first, 166 to 168 °C for the second.

First: Cn1ccc2cc(N3Cc4ccc(N5CCCC5)cc4C3=O)ccc21
Second: Cc1ncc(CN2CCc3cc(-c4ccc(Cl)cc4)ccc3C2)c(N)n1
The melting point of the first is higher: 252 to 253 °C for the first, 205 to 208 °C for the second.

First: COc1ccc(C(=O)C=Cc2c(O)cc(OCCBr)cc2O)cc1O
Second: CC(=O)c1ccc(C(=O)NCCOc2ccc3ccccc3c2)cc1
The melting point of the first is higher: 158 to 162 °C for the first, 131 to 132 °C for the second.

First: FC(F)(F)c1cccc(-c2cnnn2-c2cc(Cl)ccc2-c2nnn[nH]2)c1
Second: Cc1cc(-c2nc3cccnn3c2-c2ccnc(NC(N)=O)c2)ccc1F
The melting point of the first is lower: 230 to 232 °C for the first, 254 to 255 °C for the second.

Compared with `CN(C)CC1CCCCN1CCCNC(=O)N1c2ccccc2C(=O)Nc2cccnc21` (stereo not given), `CCN(CC)CCNC(=O)c1cccc2cc3c(I)cccc3nc12` is lower in melting point: 160 to 162 °C for the first, 78 to 80 °C for the second.

First: Cc1cc(C)c2c(c1)[C@H]1CN(C)CC[C@@H]1CC2=O (relative stereo)
Second: CC(=O)NCC1CN(c2ccc(N3CCN(c4nnc(C)s4)CC3)c(F)c2)C(=O)O1 (stereo not given)
The melting point of the first is higher: greater than 250 °C for the first, 247 to 249 °C for the second.

Compared with `C=CCN(C(C)=O)c1cccc(-c2ccc3nncn3n2)c1`, `COCCc1nc2ccccn2c(=O)c1-c1ccc(Cl)cc1` is lower in melting point: 139 to 142 °C for the first, 116 to 118 °C for the second.

`COc1ccc(S(=O)(=O)Nc2nc(-c3cccc([N+](=O)[O-])c3)c(CN(C)C)s2)cc1OC` and `COC(=O)C1=C(C)NC(C)=C(S(=O)(=O)c2ccccc2)C1c1ccccc1[N+](=O)[O-]` (stereo not given) are the same in melting point: 203 °C for the first, 203 °C for the second.

`CCCc1nc2c(N)nc(Cl)c(C)c2n1CCOCCN` and `CC(C)N(c1nc(N)nc(-c2cc(Cl)ccc2Cl)n1)C(C)C` cannot be ordered by melting point: 158 to 161 °C for the first, 158 to 159 °C for the second.

Compared with `CCC(=O)Nc1c(C(=O)c2cc(Cl)ccn2)[nH]c2cc(Cl)ccc12`, `NC(=O)c1cc(Cl)ccc1SSc1ccc(Cl)cc1C(N)=O` is higher in melting point: 188 to 190 °C for the first, 278 to 282 °C for the second.

Compared with `COc1cc(CCCC2OC(=O)NC2=O)ccc1OCc1coc(-c2ccccc2)n1` (stereo not given), `CCc1nnc(C(Cc2ccc(OCCc3nc(-c4ccccc4)oc3C)cc2)c2ccccc2)o1` (stereo not given) is lower in melting point: 134 to 135 °C for the first, 110 °C for the second.

First: O=C(Cc1ccc(Cl)cc1)c1ccc(OC(F)F)cc1
Second: O=C(NO)[C@H](CNS(=O)(=O)c1ccc(OCc2ccc(F)cc2)cc1)N1CCCCC1
The melting point of the first is lower: 74 to 76 °C for the first, 140 °C for the second.

First: O=C1N(Cc2ccc(N3CCOCC3)nc2)c2ccccc2C12COc1cc3c(cc12)OCCO3 (stereo not given)
Second: O=C1CC(c2coc3ccccc23)=Nc2cc3c(cc21)OCO3
The melting point of the first is lower: 117 to 119 °C for the first, greater than 315 °C for the second.

First: CN(C(=O)OC(C)(C)C)C1CC=C(c2c[nH]c3ccc([N+](=O)[O-])cc23)CC1 (stereo not given)
Second: CC(=O)Oc1cc([N+](=O)[O-])ccc1CBr
The melting point of the first is higher: 224 to 226 °C for the first, 76.5 to 78 °C for the second.

Compared with `OCc1ccc(-c2ccc3nnn(Cc4ccc5ncccc5c4)c3n2)cc1`, `CC(=O)Nc1ccc(-c2cc(-c3c(-c4ccccn4)nc4ccccn34)ccn2)cc1` is lower in melting point: 187 to 189 °C for the first, 133 °C for the second.

Compared with `Cc1ccc(-c2nc(NCCN3CCOCC3)cc(Sc3ccc(Cl)cc3)n2)cc1`, `Cn1ccnc1Sc1ccc(Nc2c(C#N)cnc3cc(/C=C/CCCN4CCCC4)ccc23)cc1Cl` is higher in melting point: 141 to 142 °C for the first, 217 to 222 °C for the second.

First: O=C(O)c1cc([N+](=O)[O-])ccc1Nc1ccc(CCc2ccc(Cl)c(Cl)c2)cc1
Second: CC(=O)Nc1nc(CCc2ccc(N)cc2)c(C(=O)O)s1
The melting point of the first is higher: 214 to 217 °C for the first, 212 °C for the second.

Compared with `CCOC(=O)CCc1c(OCCCCCCc2ccc(OC)cc2)ccc2c(=O)c3cc(C(=O)OC)ccc3oc12`, `CCOC(=O)CCCCCCCn1cnc(-c2ccc(O)cc2)c1-c1ccc(O)cc1` is higher in melting point: 108 to 109 °C for the first, 186 to 187 °C for the second.

First: CC(=O)Nc1ccccc1CN1CCC(CCC(=O)c2ccc(Nc3ncnc4c3CCC4)cc2)CC1
Second: O=C(O)C1CCc2c(c3ccccc3n2C(=O)c2cccc(I)c2)C1 (stereo not given)
The melting point of the first is higher: 219 to 222 °C for the first, 210 to 212 °C for the second.

Compared with `Nc1c([N+](=O)[O-])sc2cc(Cl)ccc12`, `O=[N+]([O-])c1ccc(Oc2cncc(Cl)c2)cc1` is lower in melting point: 243 to 245 °C for the first, 80 to 82 °C for the second.

Compared with `CC(C)C(=O)c1[nH]c(C(CC2CCCC2)c2ccc(S(C)(=O)=O)cc2)nc1F` (stereo not given), `COC(=O)c1cc(C(=O)NC2CCOCC2)c2cc(Cc3ccc(F)cc3)cnc2c1O` is higher in melting point: 161 to 162 °C for the first, 246 to 247 °C for the second.

First: Cc1ccc(Cc2nc3cc(-c4ccc(-c5ccccc5)cc4)c(Cl)cc3[nH]2)cc1P(=O)(O)O
Second: Cc1cc2cc(CN(C)C)cnc2cc1NC(=O)c1ccc(-c2ccc(F)cc2)cc1
The melting point of the first is higher: greater than 220 °C for the first, 183 to 186 °C for the second.

First: O=S(=O)(F)c1ccccc1S(=O)(=O)F
Second: Cc1n[nH]c2ccccc12
The melting point of the first is higher: 130 to 131 °C for the first, 110 to 113 °C for the second.

Compared with `c1ccc2c(c1)C1CC2(CC2CN(CC3CC3)CCO2)c2ccccc21` (stereo not given), `CN(C)C1(c2ccccc2)CCC2(OCCc3c2[nH]c2ccc(F)cc32)C(Cc2cccc(F)c2)C1` (stereo not given) is higher in melting point: 88 to 90 °C for the first, 133 to 135 °C for the second.

First: CS(=O)(=O)N[C@@H](CCCCNC=O)C(=O)NC[C@H](CC1(C(=O)N[C@@H](Cc2ccc(O)cc2)C(=O)O)CCCC1)C(=O)O
Second: Cc1cccc(C(=O)NO)c1N(C)S(=O)(=O)c1ccc(OCCCCNC(=O)c2ccc3c(c2)OCO3)cc1
The melting point of the first is lower: 56 to 60 °C for the first, 117 to 121 °C for the second.

Compared with `O=C(C(=O)c1ccc(Oc2ccc(O)cc2)cc1)c1ccc(Oc2ccc(O)cc2)cc1`, `COc1ccc(C(=C(c2ccc(C#N)cc2)n2ccnc2)c2ccc(OC)cc2)cc1` is lower in melting point: 220 to 221 °C for the first, 174 to 176 °C for the second.

Compared with `COC1(C(=O)O)C=CC(OCc2ccccc2)=CC1` (stereo not given), `CCCc1c(C(=O)NCc2ccc3c(Br)c(OCC(=O)O)ccc3c2)cnn1-c1ccccc1` is lower in melting point: 172 to 173 °C for the first, 140 to 145 °C for the second.

First: COC(=O)N[C@@H]1CCc2ccc(Br)cc2C1=O
Second: CC(=O)Oc1cccc2c1CC(=O)N2C
The melting point of the first is higher: 111 to 112 °C for the first, 109 to 111 °C for the second.

First: CC(C)n1cc(I)c2c(Cl)ncnc21
Second: Cn1ncc2nc3cccc(F)c3c(Cl)c21
The melting point of the first is lower: 116 to 118 °C for the first, 269 °C for the second.

First: Cc1cnc2ccc(N)cc2n1
Second: N#Cc1cnc2ccccc2c1Nc1ccc(Cl)cc1Cl
The melting point of the first is lower: 170 to 173 °C for the first, 260 to 262 °C for the second.

First: O=C1CN=C2C(=O)CC=CC2=N1
Second: O=C1NCCc2ccc(OCCCCCl)cc2N1
The melting point of the first is higher: 208 to 211 °C for the first, 177 to 179 °C for the second.

First: O=C=Nc1ccc(C(=S)OC2CCCCC2)c(Cl)c1
Second: N#Cc1cccc2c1CCC2=NO
The melting point of the first is lower: 60 to 65 °C for the first, 200 to 202 °C for the second.

Compared with `Cc1cc(C(O)(C(F)(F)F)C(F)(F)F)c2ccccc2c1NS(C)(=O)=O`, `CCOC(=O)c1cccc(NC(=O)N2CCc3cc(SC)c(C(F)(F)F)cc32)c1` is higher in melting point: 174 °C for the first, 195 to 197 °C for the second.

First: CCOC(C)O[C@H]1C(=O)N[C@H]1C=Cc1ccccc1 (stereo not given in full)
Second: CCCCCCCCCN(C)c1ccc(S(=O)(=O)Nc2ccccc2)cc1
The melting point of the first is lower: 98 to 99 °C for the first, 113 to 116 °C for the second.

Compared with `O=C(CN1C(=O)C(NC(=O)c2cc3ccccc3[nH]2)C(c2ccccc2)Sc2ccccc21)NCCc1ccccc1` (stereo not given), `C#CCN(c1ccc(C(=O)O)cc1)C1CCc2cc3nc(C)[nH]c(=O)c3cc21` (racemic) is higher in melting point: 157 to 163 °C for the first, 264 °C for the second.

First: Cc1cc(N(C)C)cc(C)c1C1OC(C)(C)N=C1c1ccccc1 (stereo not given)
Second: NC(=O)c1cc(O)c(O)cc1N
The melting point of the first is lower: 105 °C for the first, greater than 300 °C for the second.

With `O=C(C[C@@H](O)C(F)(F)F)N[C@H]1CC[C@H](CCN2CCN(c3nccc4c3CCO4)CC2)CC1` the melting point was 207 °C.
